Measurements taken from ChEMBL document CHEMBL6103579, “Antiproliferative activity of selenium-enriched coumarin derivatives on the SK-N-SH neuroblastoma cell line: Mechanistic insights” (Eur J Med Chem, 2025).
Activity calls are given as the source filed them. The rule behind the calls is not given here.

What was measured:
N2a [1] = test: Antitumor activity against mouse N2a cells implanted in female ICR mouse model assessed as reduction in tumor weight at 10 mg/kg, ip measured upto 8 days (reference value: 0.9 +/-0.26 g); assay type: functional; conditions: time <= 8 day
N2a [2] = test: Antitumor activity against mouse N2a cells implanted in female ICR mouse model assessed as reduction in tumor weight at 20 mg/kg, ip measured upto 8 days (reference value: 0.9 +/-0.26 g); assay type: functional; conditions: time <= 8 day
N2a [3] = test: Antitumor activity against mouse N2a cells implanted in female ICR mouse model assessed as tumor inhibition rate at 10 mg/kg, ip measured upto 8 days relative to control; assay type: functional; design: scale not given: the % may be the effect or the level left; conditions: time <= 8 day
N2a [4] = test: Antitumor activity against mouse N2a cells implanted in female ICR mouse model assessed as tumor inhibition rate at 20 mg/kg, ip measured upto 8 days relative to control; assay type: functional; design: scale not given: the % may be the effect or the level left; conditions: time <= 8 day
N2a [5] = test: Antitumor activity against mouse N2a cells implanted in female ICR mouse model assessed as change in body weight at 10 mg/kg, ip measured upto 8 days (reference value: 25.54 +/-2.19 g); assay type: functional; conditions: time <= 8 day
N2a [6] = test: Antitumor activity against mouse N2a cells implanted in female ICR mouse model assessed as change in body weight at 20 mg/kg, ip measured upto 8 days (reference value: 25.54 +/-2.19 g); assay type: functional; conditions: time <= 8 day
N2a [7] = test: Antiproliferative activity against mouse N2a cells assessed as inhibition of cell growth incubated for 60 hrs by CCK-8 method; assay type: functional, cell-based
N2a [8] = test: Antitumor activity against mouse N2a cells implanted in female ICR mouse model assessed as reduction in cell nuclear size at 10 to 20 mg/kg, ip by H and E staining based analysis; assay type: functional, organism-based; conditions: dose 10-20 mg/kg
[9] = Toxicity in female ICR mouse assessed as abnormal movement at 10 to 20 mg/kg, ip; assay type: organism-based; conditions: in vivo, dose 10-20 mg/kg
[10] = Toxicity in female ICR mouse assessed as effect on body weight loss at 10 to 20 mg/kg, ip; assay type: organism-based; conditions: in vivo, dose 10-20 mg/kg
[11] = Toxicity in female ICR mouse assessed as hyperplasia in liver at 10 to 20 mg/kg, ip by H and E staining based analysis; assay type: organism-based; conditions: in vivo, dose 10-20 mg/kg
[12] = Toxicity in female ICR mouse assessed as appearance of intact glomeruli in kidney at 10 to 20 mg/kg, ip H and E staining based analysis; assay type: organism-based; conditions: in vivo, dose 10-20 mg/kg
[13] = Toxicity in female ICR mouse assessed as appearance of homogenous renal corpuscles in kidney at 10 to 20 mg/kg, ip H and E staining based analysis; assay type: organism-based; conditions: in vivo, dose 10-20 mg/kg
[14] = Toxicity in female ICR mouse assessed as histomorphological changes in spleen at 10 to 20 mg/kg, ip H and E staining based analysis; assay type: organism-based; conditions: in vivo, dose 10-20 mg/kg
[15] = Toxicity in female ICR mouse assessed as histomorphological changes in liver at 10 to 20 mg/kg, ip H and E staining based analysis; assay type: organism-based; conditions: in vivo, dose 10-20 mg/kg
[16] = Toxicity in female ICR mouse assessed as histomorphological changes in heart at 10 to 20 mg/kg, ip H and E staining based analysis; assay type: organism-based; conditions: in vivo, dose 10-20 mg/kg
[17] = Toxicity in female ICR mouse assessed as change in organ coefficient of heart at 10 mg/kg, ip […] (reference value: 0.006+/-0.002); assay type: organism-based; conditions: in vivo
[18] = Toxicity in female ICR mouse assessed as change in organ coefficient of heart at 20 mg/kg, ip […] (reference value: 0.006+/-0.002); assay type: organism-based; conditions: in vivo
[19] = Toxicity in female ICR mouse assessed as change in organ coefficient of liver at 10 mg/kg, ip […] (reference value: 0.058+/-0.010); assay type: organism-based; conditions: in vivo
[20] = Toxicity in female ICR mouse assessed as change in organ coefficient of liver at 20 mg/kg, ip […] (reference value: 0.058+/-0.010); assay type: organism-based; conditions: in vivo
[21] = Toxicity in female ICR mouse assessed as change in organ coefficient of spleen at 10 mg/kg, ip […] (reference value: 0.006+/-0.002); assay type: organism-based; conditions: in vivo
[22] = Toxicity in female ICR mouse assessed as change in organ coefficient of spleen at 20 mg/kg, ip […] (reference value: 0.006+/-0.002); assay type: organism-based; conditions: in vivo
[23] = Toxicity in female ICR mouse assessed as change in organ coefficient of lung at 10 mg/kg, ip […] (reference value: 0.007+/-0.001); assay type: organism-based; conditions: in vivo
[24] = Toxicity in female ICR mouse assessed as change in organ coefficient of lung at 20 mg/kg, ip […] (reference value: 0.007+/-0.001); assay type: organism-based; conditions: in vivo
[25] = Toxicity in female ICR mouse assessed as change in organ coefficient of kidney at 10 mg/kg, ip […] (reference value: 0.007); assay type: organism-based; conditions: in vivo
[26] = Toxicity in female ICR mouse assessed as change in organ coefficient of kidney at 20 mg/kg, ip […] (reference value: 0.007); assay type: organism-based; conditions: in vivo
SK-N-SH [27] = test: Induction of mitochondrial dysfunction in human SK-N-SH cells assessed as appearance of ring like distribution at 6 uM measured upto 48 hrs; assay type: functional, cell-based
[28] = Drug localization in cytoplasm of human SK-N-SH cells assessed as increase in green fluorescence at 6 uM measured after 48 hrs by DAPI staining based fluorescence microscopic analysis; assay type: ADME, subcellular
[29] = Drug localization in mitochondria of living human SK-N-SH cells assessed as colocalization at 6 uM incubated for 48 hrs by DAPI staining based fluorescence microscopic analysis; assay type: ADME
[30] = Drug localization in nucleus of human SK-N-SH cells assessed as increase in green fluorescence at 6 uM measured after 48 hrs by DAPI staining based fluorescence microscopic analysis; assay type: ADME, subcellular
SK-N-SH [31] = test: Induction of mitochondrial dysfunction in human SK-N-SH cells assessed as appearance of blurred mitochondria at 6 uM measured after 48 hrs by fluorescence microscopic analysis; assay type: functional, cell-based
SK-N-SH [32] = test: Induction of mitochondrial dysfunction in human SK-N-SH cells assessed as appearance of fragmented mitochondria at 6 uM measured after 48 hrs by fluorescence microscopic analysis; assay type: functional, cell-based

## N#C[Se]CCCOc1ccc2cc(C(=O)N3N=C(c4ccc(F)cc4)CC3c3ccc(F)cc3)c(=O)oc2c1 (configuration not stated)
N2a [1]
  Activity: 0.19 g
N2a [2]
  Activity: 0.06 g
N2a [3]
  Activity: 79.1%
N2a [4]
  Activity: 93.3%
N2a [5]
  Activity: 27.2 g
N2a [6]
  Activity: 26.34 g
N2a [7]
  IC50: 17.9 µM
N2a [8]
  Activity: Active
[9]
  Activity: Non-toxic
[10]
  Activity: Non-toxic
[11]
  Activity: Non-toxic
[12]
  Activity: Non-toxic
[13]
  Activity: Non-toxic
[14]
  Activity: Non-toxic
[15]
  Activity: Non-toxic
[16]
  Activity: Non-toxic
[17]
  Activity: 0.005
[18]
  Activity: 0.005
[19]
  Activity: 0.059
[20]
  Activity: 0.059
[21]
  Activity: 0.006
[22]
  Activity: 0.005
[23]
  Activity: 0.007
[24]
  Activity: 0.007
[25]
  Activity: 0.007
[26]
  Activity: 0.008
SK-N-SH [27]
  Activity: Active
[28]
  Drug uptake: Active
[29]
  Drug uptake: Active
[30]
  Drug uptake: Not_active
SK-N-SH [31]
  Activity: Active
SK-N-SH [32]
  Activity: Active
